One data set deals with IL-4. The data set can be described thus: Measurement of IL-4 Levels in Human T Cells (IL-4 Assay). To be noted: Human T cells (HUT 78), phorbol 12-myristate 13-acetate and anti-CD3, 32 hours, ELISA, read-out: IL-4 Inhibition IC50. The format is cell-based. As for the experimental part: (§1) Measurement of IL-5 and IL-4 Levels in Human T Cells (IL-4 and IL-5 Assays) Human T cells (HUT 78) were cultured to 1×10^6/mL in RPMI 1640 medium containing 10% fetal calf serum, 100 U/mL penicillin and 100 μg/mL streptomycin. Cultures were then centrifuged, to pellet the cells, and cells resuspended in fresh medium to the same density. 0.2 mL samples of cells were incubated in 96-well plates with 8 μL of various concentrations of compound freshly diluted with the above medium from 100 mM solvent stocks (ethanol or DMSO). Immediately after addition of compound, cells were stimulated by addition of 2 ng/mL phorbol 12-myristate 13-acetate (1 μL of freshly prepared solution of stock (in DMSO) diluted with the above medium added to cells) and 750 μg/mL anti-CD3 (pre-coated at 4° C. overnight). Cell cultures were incubated at 37 OC for 32 hours, then cells pelleted by centrifugation and the supernatants harvested for ELISA. IL-4 and IL-5 ELISA's were performed according to standard procedures. Inhibition was calculated relative to cytokine levels produced from control stimulated cells not treated with compound.

The subject of data set [1] is Human peripheral blood mononuclear cells. The data set can be described thus: Human Concanavalin-A Proliferation Assay (Con HU Assay). The class given is cell-based. Conditions: concanavalin-A stimulated human PBMC; for inhibition at 10 µM: concentration 10 μm (in parentheses in the cell); for IC50: tritiated thymidine. A digest of the protocol:
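Histopaque-isolated human PBMC (50,000/well) were pre-incubated 15 min with compounds, then stimulated with concanavalin-A at 2.5 μg/ml final for 3 days at 37 °C, 5% CO2. Proliferation measured by 6 h pulse with 0.5 μCi/well [3H]thymidine and beta counting.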

Another data set deals with IL-5. Briefly: Measurement of IL-5 Levels in Human T Cells (IL-5 Assay). The format is cell-based. Conditions: Human T cells (HUT 78), phorbol 12-myristate 13-acetate and anti-CD3, 32 hours, ELISA, read-out: IL-5 Inhibition IC50. On the procedure:
as §1

For the next data set, the system named is IL-2. The data set can be described thus: CD3 and CD28 Activation of Peripheral Blood T Cells and Determination of Secreted IL-2 Levels (C28 HU Assay). To be noted: PBMC stimulated with anti-CD3 and anti CD28 mAbs, 24 hour; for IC50: IL-2 secretion. The class given is cell-based, Human. On the procedure: Human peripheral blood mononuclear cells were cultured in RPMI 1640 medium supplemented with 10 μg/ml gentamicin, 50 μM 2-mercaptoethanol, 1X MEM non-essential amino acids (Sigma Chemical Co., St. Louis, Mo.), 100 U/ml sodium penicillin G, 100 μg/ml streptomycin sulfate, 2 mM L-glutamine, 1 mM sodium pyruvate (Life Technologies, Grand Island, N.Y.) and 10% fetal bovine serum (Hyclone, Logan, Utah) at 37° C. with 5% CO2.
Human peripheral blood mononuclear cells (PBMC) were isolated by Ficoll-Hypaque seperation. PBMCs were stimulated with a combination of immobilized anti-CD3 and soluble anti CD28 mAbs as described in Faltynek, et al. J. Enzyme Inhibition 1995, 9, 111-122, hereby incorporated by reference. Following a 24 hour incubation, cell supernatants were harvested and IL-2 levels were determined. 100 μl of 5 μg/ml monoclonal murine anti-human IL-2 antibody (Biosource International) in D-PBS was added to 96 well Maxisorb plates (Nunc) and incubated at 4° C. overnight. Plates were washed 4 times with D-PBS containing 0.05% Tween 20 (wash buffer) and blocked with D-PBS containing 1% BSA and 10 mM NaN3 (Diluent/Blocking buffer) for 1-3 hours at room temperature or overnight at 4° C. Plates were washed and recombinant human IL-2 diluted (at 10,000, 5,000, 2,500, 1,250, 625, 312.5, 156.25, 78, 39, 20 pg/ml) in diluent/blocking buffer containing a matched percentage of complete RPMI 1640 medium as the unknown samples. Tissue culture supernatant at various dilutions were added in triplicate at 100 μl/well. Plates were incubated for 2 hours at room temperature and washed 4 times with wash buffer. 100 pl of rabbit anti-human IL-2 (10 μg/ml, Genzyme) was added and incubated for 1 hour at room temperature. The incubation was followed by 4 washes and subsequent addition of 100 pl of 1:2000 dilution of alkaline phosphatase-conjugated goat anti-rabbit F(ab′)2 (Biosource International). After 1 hour the plates were washed 4 times and 100 μl of pNPP (Southern Biotech or Sigma) at 1 mg/ml in buffer was added. Color development was allowed to proceed at room temperature for 20 minutes before addition of 50 μl of 2 N NaOH. Absorbance at 405 nm was determined using a plate reader (Molecular Devices). IL-2 concentrations were calcualted using SoftMax (Molecular Devices) based on the IL-2 standard solutions.

Where [2] appears, read: Homo sapiens, PBMC, 72 h, 3 days, read-out: % Inhibition of proliferation (at concentrations of 1,10, or 100 μm).
The mark [3] stands for this setting: concentration 100 μm (in parentheses in the cell), 3 days.

These results are taken from US20010044445A1, “AZOLE INHIBITORS OF CYTOKINE PRODUCTION” (priority 1999, published 2001).

Like-named read-outs stand apart in the source and are kept apart here.

For `O=C(Nc1ccc(-n2nc(C(F)(F)F)cc2C(F)(F)F)cc1)C1=CCCCC1` [Example 6, N-[4-[3,5-bis(trifluoromethyl)-1H-pyrazol-1-yl]phenyl]-1-cyclohexene-1-carboxamide], the melting point lay within 146 to 148 °C. Moreover, the IC50 in the data set with IL-4 (HuT78) came to 8 nM. Further, in data set [1] (setting [2]), the inhibition at 10 µM is 100%. In data set [1] (Homo sapiens, PBMC), this molecule registered an IC50 of 98 nM. Besides, the IC50 in the data set with IL-5 (HuT78) was 50 nM.
`O=C(Nc1ccc(Cl)cc1)c1ccc(-n2nc(C(F)(F)F)cc2C(F)(F)F)cc1` [Example 24, N-4-[3,5-bis(trifluoromethyl)-1H-pyrazol-1-yl]-N-(4-chlorophenyl)benzamide]: the IC50 is 150 nM in the data set on IL-4, 380 nM in the data set on IL-2, 301 nM in data set [1] and 150 nM with IL-5. Further, the “% Inhibition of proliferation (at concentrations of 1,10, or 100 μm)” value in data set [1] (setting [3]) was 98(100) %.
`O=C(Nc1ccc(-n2nc(C(F)(F)F)cc2C(F)(F)F)cc1)c1cccc(F)c1F` [Example 209, N-[4-[3,5-bis(trifluoromethyl)-1H-pyrazol-1-yl]phenyl]-2,3-difluorobenzamide] yielded a melting point of 147 to 149 °C. Further, the IC50 in the data set with IL-4 (HuT78) came to 5 nM. For the same molecule, the inhibition at 10 µM in data set [1] (setting [2]) was 99%. For the same molecule, 33 nM corresponded to half-maximal inhibition in data set [1] (Homo sapiens, PBMC) (IC50). For the same molecule, in the data set on IL-5 (HuT78), the IC50 turned out to be 38 nM.
On to `Cc1nnsc1C(=O)Nc1ccc(-n2nc(C(F)(F)F)cc2C(F)(F)F)cc1` [Example 250, N-[4-[3,5-bis(trifluoromethyl)-1H-pyrazol-1-yl]phenyl]-4-methyl-1,2,3-thiadizole-5-carboxamide], for which the IC50 with IL-4 was 50 nM; with IL-2, 102 nM; in data set [1], 173 nM; in the data set with IL-5, 80 nM. In addition, the “% Inhibition of proliferation (at concentrations of 1,10, or 100 μm)” value in data set [1] (setting [3]) is reported as 100(100) %.
As to `O=C(Nc1ccc(-n2nc(C(F)(F)F)cc2C(F)(F)F)cc1)c1ccncc1F` [Example 264, N-[4-[3,5-bis(trifluoromethyl)-1H-pyrazol-1-yl]phenyl]-3-fluoro-4-pyridinecarboxamide], the IC50 in the data set on IL-4 (HuT78) came out at 4.8 nM; in data set [1] (Homo sapiens, PBMC), 42 nM; in the data set on IL-5 (HuT78), 22 nM. Further, the inhibition at 10 µM in data set [1] (setting [2]) came to 100%.
Consider `Cc1noc(C)c1C(=O)Nc1ccc(-n2nc(C(F)(F)F)cc2C(F)(F)F)cc1` [Example 266, N-[4-[3,5-bis(trifluoromethyl)-1H-pyrazol-1-yl]phenyl]-3,5-dimethyl-4-isoxazolecarboxamide], for which the melting point was in the range of 179 to 180 °C. The IC50 in the data set on IL-4 (HuT78) turned out to be 110 nM. Moreover, the IC50 in the data set on IL-2 (Homo sapiens) was determined as 314 nM. The inhibition at 100 µM in the data set with IL-2 (Homo sapiens, concentration 100 μM (in c2), read-out: % Inhibition of IL-2 secretion (At concentrations of 1, 10, or 100 μM)) amounted to 88%. In addition, the inhibition at 100 µM in data set [1] (Homo sapiens, PBMC, 72 h, concentration 100 μm (in parentheses in the cell), 3 days, read-out: % Inhibition of proliferation (at concentrations of 1,10, or 100 μm)) was determined as 100%. For the same molecule, the IC50 in data set [1] (Homo sapiens, PBMC) amounted to 322 nM. Also, the IC50 in the data set on IL-5 (HuT78) was found to be 150 nM.
Turning to `C=CC[C@@H]1/C=C(\C)C[C@H](C)C[C@H](OC)[C@H]2O[C@@](O)(C(=O)C(=O)N3CCCC[C@H]3C(=O)O[C@H](/C(C)=C/[C@@H]3CC[C@@H](O)[C@H](OC)C3)[C@H](C)[C@@H](O)CC1=O)[C@H](C)C[C@@H]2OC` [FK-506, tacrolimus, reference compound], the values for the IC50 in the data set with IL-4 (HuT78) and in the data set on IL-5 (HuT78) were 0.7 nM and 0.5 nM, respectively.
